Measurements from PMC12736120, “First-in-Human Phase I Clinical Trial of SLC-391, a Novel and Selective AXL Inhibitor, in Patients with Advanced Solid Tumours” (Pharmaceuticals, 2025).

Experiment: Phase I safety and tolerability (DLTs, adverse events, laboratory, ECG)
Type: in vivo
Conditions: for dose-limiting toxicity (DLT): one subject; for Any treatment-related adverse event (TRAE) / TRAE: Decreased appetite / TRAE: Diarrhoea / TRAE: Dysgeusia / TRAE: Fatigue / TRAE: Gastrointestinal disorders / TRAE: General disorders and administration site conditions / TRAE: Metabolism and nutrition disorders / TRAE: Nausea / TRAE: Nervous system disorders / TRAE: Vomiting: Definitely related; for Any treatment-emergent adverse event (TEAE) / TEAE: Abdominal distension / TEAE: Abdominal pain / TEAE: Back pain / TEAE: Blood and lymphatic system disorders / TEAE: Chills / TEAE: Constipation / TEAE: Cough / TEAE: Decreased appetite / TEAE: Diarrhoea / TEAE: Dizziness / TEAE: Dysgeusia / TEAE: Dyspnoea / TEAE: Fatigue / TEAE: Gastrointestinal disorders / TEAE: General disorders and administration site conditions / TEAE: Haematuria / TEAE: Headache / TEAE: Infections and infestations / TEAE: Investigations / TEAE: Metabolism and nutrition disorders / TEAE: Musculoskeletal and connective tissue disorders / TEAE: Nausea / TEAE: Nervous system disorders / TEAE: Oedema peripheral / TEAE: Psychiatric disorders / TEAE: Pyrexia / TEAE: Renal and urinary disorders / TEAE: Respiratory, thoracic, and mediastinal disorders / TEAE: Skin and subcutaneous tissue disorders / TEAE: Vomiting / TEAE: Weight decreased: Grade 1
Procedure: This study employed a standard 3 + 3 dose escalation design with a starting dose of 25 mg QD. […] Dose escalation decisions took into account all available data from evaluable subjects as well as PK and the safety profile of prior dose cohorts. […] There was a minimum 5-day stagger between dosing of the first and second subjects in each dose cohort. Dose escalation decisions were made by a data review committee (DRC) composed of, at minimum, the medical monitor, at least one principal investigator, and a sponsor representative, per the study DRC Plan. Dose escalation could continue until 2 or more subjects in the same dose cohort experienced a dose-limiting toxicity (DLT). DLTs were defined as Grade 3 or 4 adverse drug reactions (ADRs), with grades as defined in the National Cancer Institute Common Toxicity Criteria for Adverse Events (NCI-CTCAE) version 5.0. […] The MTD was defined as the highest dose at which no more than 1 of 6 subjects experienced a DLT during cycle 1 of the study drug. The MTD would have been exceeded if 2 or more subjects in a dose cohort of up to 6 subjects experienced a DLT. Subjects could continue treatment until disease progression, unacceptable toxicity, death, withdrawal of consent, or loss to follow-up.
Before enrolment in the study, all patients received a detailed medical history and physical examination. Clinical laboratory evaluations included clinical chemistry, complete blood count, urinalysis, coagulation factors, and a lipid panel. Other safety assessments included vital signs, physical examination, electrocardiogram, and echocardiogram with multigated acquisition (ECHO/MUGA). Safety assessments were performed on days 1, 8, 15, and 21 of cycle 1, and on day 1 of cycles 2 to 6.

Nc1ncc(-c2cnn(C3CCNCC3)c2)cc1-c1nnc(CC2CC2)o1 [SLC-391, 3-(5-[cyclopropylmethyl]-1,3,4-oxadiazol-2-yl)-5-(1-[piperidin-4-yl]-1H-pyrazol-4-yl)-pyridin-2-amine]
subjects with SAEs (110 mg BID (1/3)): 33.3% | TEAEs leading to drug withdrawal or study discontinuation (150 mg BID): 16.7% | subjects reporting Grade 3 TEAEs (150 mg BID): 50.0% | DLTs and SAEs (150 mg BID (N = 6)): no DLTs or SAEs | subjects reporting constipation (150 mg BID (N = 6)): 66.7% | subjects reporting diarrhoea (150 mg BID (N = 6)): 66.7% | subjects reporting dyspnoea (150 mg BID (N = 6)): 50.0% | subjects reporting fatigue (150 mg BID (N = 6)): 83.3% | subjects reporting nausea (150 mg BID (N = 6)): 83.3% | subjects with SAEs (150 mg QD (3/6)): 50% | subjects with SAEs (175 mg QD (1/2)): 50% | dose-limiting toxicity (DLT) (175 mg QD (N = 2), SUSAR): Grade 3 haematochezia | TEAEs leading to drug withdrawal or study discontinuation (200 mg BID): 66.7% | subjects reporting Grade 3 TEAEs (200 mg BID): 66.7% | subjects reporting constipation (200 mg BID (N = 3)): 66.7% | subjects reporting decreased appetite (200 mg BID (N = 3)): 66.7% | subjects reporting diarrhoea (200 mg BID (N = 3)): 66.7% | subjects reporting dysgeusia (200 mg BID (N = 3)): 66.7% | subjects reporting fatigue (200 mg BID (N = 3)): 66.7% | subjects reporting headache (200 mg BID (N = 3)): 66.7% | subjects reporting nausea (200 mg BID (N = 3)): 100.0% | dose-limiting toxicity (DLT) (200 mg BID): Grade 3 thrombocytopenia associated with Grade 1 haematuria | subjects with interrupted dosing who continued at a reduced dose (2/9 subjects): 22.2% | maximum tolerated dose (MTD) (25-175 mg QD, 75-200 mg BID, 21-day cycles): not reached | SAEs, subjects (BID cohorts): 6.7% | TEAEs leading to treatment interruption or missed dose (BID cohorts): 40.0% | TEAEs leading to treatment or study discontinuation, subjects (BID cohorts): 20.0% | subjects with Grade 3 TEAEs (BID cohorts): 40.0% | subjects with TRAEs (BID cohorts): 86.7% | subjects with at least one TEAE (BID cohorts): 100.0% | Any treatment-related adverse event (TRAE) (Overall BID (N = 15)): 5 (33.3%) n (%) | TRAE: Decreased appetite (Overall BID (N = 15)): 2 (13.3%) n (%) | TRAE: Diarrhoea (Overall BID (N = 15)): 2 (13.3%) n (%) | TRAE: Dysgeusia (Overall BID (N = 15)): 1 (6.7%) n (%) | TRAE: Fatigue (Overall BID (N = 15)): 1 (6.7%) n (%) | TRAE: Gastrointestinal disorders (Overall BID (N = 15)): 5 (33.3%) n (%) | TRAE: General disorders and administration site conditions (Overall BID (N = 15)): 1 (6.7%) n (%) | TRAE: Metabolism and nutrition disorders (Overall BID (N = 15)): 2 (13.3%) n (%) | TRAE: Nausea (Overall BID (N = 15)): 4 (26.7%) n (%) | TRAE: Nervous system disorders (Overall BID (N = 15)): 1 (6.7%) n (%) | TRAE: Vomiting (Overall BID (N = 15)): 3 (20.0%) n (%) | Any treatment-related adverse event (TRAE) (Overall QD (N = 20)): 7 (35.0%) n (%) | TRAE: Decreased appetite (Overall QD (N = 20)): 2 (10.0%) n (%) | TRAE: Diarrhoea (Overall QD (N = 20)): 5 (25.0%) n (%) | TRAE: Dysgeusia (Overall QD (N = 20)): 1 (5.0%) n (%) | TRAE: Fatigue (Overall QD (N = 20)): 3 (15.0%) n (%) | TRAE: Gastrointestinal disorders (Overall QD (N = 20)): 6 (30.0%) n (%) | TRAE: General disorders and administration site conditions (Overall QD (N = 20)): 3 (15.0%) n (%) | TRAE: Metabolism and nutrition disorders (Overall QD (N = 20)): 2 (10.0%) n (%) | TRAE: Nausea (Overall QD (N = 20)): 4 (20.0%) n (%) | TRAE: Nervous system disorders (Overall QD (N = 20)): 1 (5.0%) n (%) | TRAE: Vomiting (Overall QD (N = 20)): 5 (25.0%) n (%) | Any treatment-related adverse event (TRAE) (Overall Study (N = 35)): 12 (34.3%) n (%) | TRAE: Decreased appetite (Overall Study (N = 35)): 4 (11.4%) n (%) | TRAE: Diarrhoea (Overall Study (N = 35)): 7 (20.0%) n (%) | TRAE: Dysgeusia (Overall Study (N = 35)): 2 (5.7%) n (%) | TRAE: Fatigue (Overall Study (N = 35)): 4 (11.4%) n (%) | TRAE: Gastrointestinal disorders (Overall Study (N = 35)): 11 (31.4%) n (%) | TRAE: General disorders and administration site conditions (Overall Study (N = 35)): 4 (11.4%) n (%) | TRAE: Metabolism and nutrition disorders (Overall Study (N = 35)): 4 (11.4%) n (%) | TRAE: Nausea (Overall Study (N = 35)): 8 (22.9%) n (%) | TRAE: Nervous system disorders (Overall Study (N = 35)): 2 (5.7%) n (%) | TRAE: Vomiting (Overall Study (N = 35)): 8 (22.9%) n (%) | Any treatment-emergent adverse event (TEAE) (Overall BID (N = 15)): 2 (13.3) n (%) | TEAE: Abdominal distension (Overall BID (N = 15)): 2 (13.3) n (%) | TEAE: Abdominal pain (Overall BID (N = 15)): 0 n (%) | TEAE: Back pain (Overall BID (N = 15)): 0 n (%) | TEAE: Blood and lymphatic system disorders (Overall BID (N = 15)): 1 (6.7) n (%) | TEAE: Chills (Overall BID (N = 15)): 4 (26.7) n (%) | TEAE: Constipation (Overall BID (N = 15)): 5 (33.3) n (%) | TEAE: Cough (Overall BID (N = 15)): 2 (13.3) n (%) | TEAE: Decreased appetite (Overall BID (N = 15)): 1 (6.7) n (%) | TEAE: Diarrhoea (Overall BID (N = 15)): 6 (40.0) n (%) | TEAE: Dizziness (Overall BID (N = 15)): 0 n (%) | TEAE: Dysgeusia (Overall BID (N = 15)): 0 n (%) | TEAE: Dyspnoea (Overall BID (N = 15)): 0 n (%) | TEAE: Fatigue (Overall BID (N = 15)): 4 (26.7) n (%) | TEAE: Gastrointestinal disorders (Overall BID (N = 15)): 7 (46.7) n (%) | TEAE: General disorders and administration site conditions (Overall BID (N = 15)): 5 (33.3) n (%) | TEAE: Haematuria (Overall BID (N = 15)): 3 (20.0) n (%) | TEAE: Headache (Overall BID (N = 15)): 3 (20.0) n (%) | TEAE: Infections and infestations (Overall BID (N = 15)): 1 (6.7) n (%) | TEAE: Investigations (Overall BID (N = 15)): 2 (13.3) n (%) | TEAE: Metabolism and nutrition disorders (Overall BID (N = 15)): 0 n (%) | TEAE: Musculoskeletal and connective tissue disorders (Overall BID (N = 15)): 2 (13.3) n (%) | TEAE: Nausea (Overall BID (N = 15)): 7 (46.7) n (%) | TEAE: Nervous system disorders (Overall BID (N = 15)): 3 (20.0) n (%) | TEAE: Oedema peripheral (Overall BID (N = 15)): 1 (6.7) n (%) | TEAE: Psychiatric disorders (Overall BID (N = 15)): 1 (6.7) n (%) | TEAE: Pyrexia (Overall BID (N = 15)): 2 (13.3) n (%) | TEAE: Renal and urinary disorders (Overall BID (N = 15)): 3 (20.0) n (%) | TEAE: Respiratory, thoracic, and mediastinal disorders (Overall BID (N = 15)): 2 (13.3) n (%) | TEAE: Skin and subcutaneous tissue disorders (Overall BID (N = 15)): 2 (13.3) n (%) | TEAE: Vomiting (Overall BID (N = 15)): 5 (33.3) n (%) | TEAE: Weight decreased (Overall BID (N = 15)): 2 (13.3) n (%) | Any treatment-emergent adverse event (TEAE) (Overall QD (N = 20)): 1 (5.0) n (%) | TEAE: Abdominal distension (Overall QD (N = 20)): 2 (10.0) n (%) | TEAE: Abdominal pain (Overall QD (N = 20)): 4 (20.0) n (%) | TEAE: Back pain (Overall QD (N = 20)): 1 (5.0) n (%) | TEAE: Blood and lymphatic system disorders (Overall QD (N = 20)): 0 n (%) | TEAE: Chills (Overall QD (N = 20)): 2 (10.0) n (%) | TEAE: Constipation (Overall QD (N = 20)): 5 (25.0) n (%) | TEAE: Cough (Overall QD (N = 20)): 4 (20.0) n (%) | TEAE: Decreased appetite (Overall QD (N = 20)): 6 (30.0) n (%) | TEAE: Diarrhoea (Overall QD (N = 20)): 8 (40.0) n (%) | TEAE: Dizziness (Overall QD (N = 20)): 4 (20.0) n (%) | TEAE: Dysgeusia (Overall QD (N = 20)): 1 (5.0) n (%) | TEAE: Dyspnoea (Overall QD (N = 20)): 2 (10.0) n (%) | TEAE: Fatigue (Overall QD (N = 20)): 6 (30.0) n (%) | TEAE: Gastrointestinal disorders (Overall QD (N = 20)): 8 (40.0) n (%) | TEAE: General disorders and administration site conditions (Overall QD (N = 20)): 7 (35.0) n (%) | TEAE: Haematuria (Overall QD (N = 20)): 1 (5.0) n (%) | TEAE: Headache (Overall QD (N = 20)): 2 (10.0) n (%) | TEAE: Infections and infestations (Overall QD (N = 20)): 0 n (%) | TEAE: Investigations (Overall QD (N = 20)): 5 (25.0) n (%) | TEAE: Metabolism and nutrition disorders (Overall QD (N = 20)): 5 (25.0) n (%) | TEAE: Musculoskeletal and connective tissue disorders (Overall QD (N = 20)): 5 (25.0) n (%) | TEAE: Nausea (Overall QD (N = 20)): 8 (40.0) n (%) | TEAE: Nervous system disorders (Overall QD (N = 20)): 8 (40.0) n (%) | TEAE: Oedema peripheral (Overall QD (N = 20)): 2 (10.0) n (%) | TEAE: Psychiatric disorders (Overall QD (N = 20)): 2 (10.0) n (%) | TEAE: Pyrexia (Overall QD (N = 20)): 2 (10.0) n (%) | TEAE: Renal and urinary disorders (Overall QD (N = 20)): 0 n (%) | TEAE: Respiratory, thoracic, and mediastinal disorders (Overall QD (N = 20)): 3 (15.0) n (%) | TEAE: Skin and subcutaneous tissue disorders (Overall QD (N = 20)): 4 (20.0) n (%) | TEAE: Vomiting (Overall QD (N = 20)): 8 (40.0) n (%) | TEAE: Weight decreased (Overall QD (N = 20)): 4 (20.0) n (%) | Any treatment-emergent adverse event (TEAE) (Overall Study (N = 35)): 3 (8.6) n (%)
